Assay results taken from PubChem BioAssay (NCI).
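Growth conditions: 96-well plates. Treatment: test compound, 48 hours, 5 concentrations. Analysis: linear interpolation between bracketing concentrations; unreached endpoints set to highest concentration. TGI: concentration producing complete growth inhibition.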

How the values were obtained:
Assay in all cases: inhibition of tumour cell growth, NCI panel, 48 h
[1] = system: 786-0 renal
[2] = system: A498 renal
[3] = system: A549 NSCLC
[4] = system: ACHN renal
[5] = system: BT-549 breast
[6] = system: CAKI-1 renal
[7] = system: CCRF-CEM leukemia
[8] = system: COLO 205 colon
[9] = system: DU-145 prostate
[10] = system: EKVX NSCLC
[11] = system: HCC-2998 colon
[12] = system: HCT-116 colon
[13] = system: HCT-15 colon
[14] = system: HL-60(TB) leukemia
[15] = system: HOP-62 NSCLC
[16] = system: HOP-92 NSCLC
[17] = system: HS 578T breast
[18] = system: HT29 colon
[19] = system: IGROV1 ovarian
[20] = system: K-562 leukemia
[21] = system: KM12 colon
[22] = system: LOX IMVI melanoma
[23] = system: M14 melanoma
[24] = system: MALME-3M melanoma
[25] = system: MCF7 breast
[26] = system: MDA-MB-231 breast
[27] = system: MDA-MB-435
[28] = system: MDA-N
[29] = system: MOLT-4 leukemia
[30] = system: NCI-H226 lung
[31] = system: NCI-H23 lung
[32] = system: NCI-H460 lung
[33] = system: NCI-H522 lung
[34] = system: NCI/ADR-RES ovarian
[35] = system: OVCAR-3 ovarian
[36] = system: OVCAR-4 ovarian
[37] = system: OVCAR-5 ovarian
[38] = system: OVCAR-8 ovarian
[39] = system: PC-3 prostate
[40] = system: RPMI-8226 leukemia
[41] = system: RXF 393 renal
[42] = system: SF-268 CNS
[43] = system: SF-295 CNS
[44] = system: SF-539 CNS
[45] = system: SK-MEL-2 melanoma
[46] = system: SK-MEL-28 melanoma
[47] = system: SK-MEL-5 melanoma
[48] = system: SK-OV-3 ovarian
[49] = system: SN12C renal
[50] = system: SNB-19 CNS
[51] = system: SNB-75 CNS
[52] = system: SR leukemia
[53] = system: SW-620 colon
[54] = system: T-47D breast
[55] = system: TK-10 renal
[56] = system: U251 CNS
[57] = system: UACC-257 melanoma
[58] = system: UACC-62 melanoma
[59] = system: UO-31 renal
[60] = system: DLD-1 colon
[61] = system: DMS 114 small cell lung
[62] = system: DMS 273 small cell lung
[63] = system: KM20L2 colon
[64] = system: LXFL 529 NSCLC
[65] = system: M19-MEL melanoma
[66] = system: SNB-78 CNS

O=C(O)C(=Cc1ccc(-c2ccccc2)cc1)C(=O)O
TGI [1]: 41.4 µM | TGI [2]: 40 µM | TGI [3]: > 58.8 µM | TGI [4]: 60.1 µM | TGI [5]: 29.4 µM | TGI [6]: 30 µM | TGI [7]: > 100 µM | TGI [8]: 25.1 µM | TGI [9]: > 39 µM | TGI [10]: > 100 µM | TGI [11]: 21.9 µM | TGI [12]: 24.7 µM | TGI [13]: > 61 µM | TGI [14]: 26.6 µM | TGI [15]: 22.5 µM | TGI [16]: > 68.6 µM | TGI [17]: > 100 µM | TGI [18]: > 49.3 µM | TGI [19]: > 100 µM | TGI [20]: 36.9 µM | TGI [21]: 40.9 µM | TGI [22]: 25.9 µM | TGI [23]: 29.5 µM | TGI [24]: 39.7 µM | TGI [25]: 33.5 µM | TGI [26]: 38.5 µM | TGI [27]: > 64.8 µM | TGI [28]: > 100 µM | TGI [29]: 53.6 µM | TGI [30]: 48.4 µM | TGI [31]: 32.2 µM | TGI [32]: 35.7 µM | TGI [33]: 22.8 µM | TGI [34]: > 94 µM | TGI [35]: 17.5 µM | TGI [36]: 41.2 µM | TGI [37]: > 55.6 µM | TGI [38]: > 92 µM | TGI [39]: 27.6 µM | TGI [40]: 20.6 µM | TGI [41]: 14.5 µM | TGI [42]: > 59.3 µM | TGI [43]: 53.3 µM | TGI [44]: 19.3 µM | TGI [45]: 16.6 µM | TGI [46]: 48.3 µM | TGI [47]: 23.9 µM | TGI [48]: 41.2 µM | TGI [49]: 35.1 µM | TGI [50]: 37.9 µM | TGI [51]: 28 µM | TGI [52]: 14.7 µM | TGI [53]: 97.5 µM | TGI [54]: 34 µM | TGI [55]: 30.7 µM | TGI [56]: 25.9 µM | TGI [57]: 25 µM | TGI [58]: 26.1 µM | TGI [59]: 27.6 µM

O=C(N/N=C/C=C/c1ccccc1)[C@H](O)[C@@H](O)C(=O)N/N=C/C=C/c1ccccc1
TGI [2]: > 100 µM | TGI [3]: > 100 µM | TGI [4]: > 100 µM | TGI [7]: > 100 µM | TGI [8]: > 100 µM | TGI [60]: > 100 µM | TGI [61]: > 100 µM | TGI [62]: > 100 µM | TGI [10]: > 100 µM | TGI [11]: > 100 µM | TGI [12]: > 100 µM | TGI [13]: > 100 µM | TGI [14]: > 100 µM | TGI [19]: > 100 µM | TGI [20]: > 100 µM | TGI [21]: > 100 µM | TGI [63]: > 100 µM | TGI [22]: > 100 µM | TGI [64]: > 100 µM | TGI [65]: > 100 µM | TGI [24]: > 100 µM | TGI [29]: > 100 µM | TGI [31]: > 100 µM | TGI [32]: > 100 µM | TGI [33]: > 100 µM | TGI [37]: > 100 µM | TGI [38]: > 100 µM | TGI [40]: > 100 µM | TGI [41]: > 100 µM | TGI [42]: > 100 µM | TGI [43]: > 100 µM | TGI [44]: > 100 µM | TGI [45]: > 100 µM | TGI [46]: > 100 µM | TGI [47]: > 100 µM | TGI [49]: > 100 µM | TGI [50]: > 100 µM | TGI [66]: > 100 µM | TGI [52]: > 100 µM | TGI [53]: > 100 µM | TGI [55]: > 100 µM | TGI [56]: > 100 µM | TGI [57]: > 100 µM | TGI [58]: > 100 µM | TGI [59]: > 100 µM

O=C(O)c1nn(-c2ccccc2-c2n[nH]c(=O)[nH]c2=O)c(=O)[nH]c1=O
TGI [1]: > 100 µM | TGI [2]: > 100 µM | TGI [3]: > 100 µM | TGI [4]: > 100 µM | TGI [5]: > 100 µM | TGI [6]: > 100 µM | TGI [7]: > 100 µM | TGI [8]: > 100 µM | TGI [9]: > 100 µM | TGI [10]: > 100 µM | TGI [11]: > 100 µM | TGI [12]: > 100 µM | TGI [13]: > 100 µM | TGI [14]: > 100 µM | TGI [15]: > 100 µM | TGI [16]: > 100 µM | TGI [17]: > 100 µM | TGI [18]: > 100 µM | TGI [19]: > 100 µM | TGI [20]: > 100 µM | TGI [21]: > 100 µM | TGI [22]: > 100 µM | TGI [23]: > 100 µM | TGI [24]: > 100 µM | TGI [25]: > 100 µM | TGI [26]: > 100 µM | TGI [27]: > 100 µM | TGI [28]: > 100 µM | TGI [29]: > 100 µM | TGI [30]: > 100 µM | TGI [31]: > 100 µM | TGI [32]: > 100 µM | TGI [33]: > 100 µM | TGI [34]: > 100 µM | TGI [35]: > 100 µM | TGI [36]: > 100 µM | TGI [37]: > 100 µM | TGI [38]: > 100 µM | TGI [39]: > 100 µM | TGI [40]: > 100 µM | TGI [41]: > 100 µM | TGI [42]: > 100 µM | TGI [43]: > 100 µM | TGI [44]: > 100 µM | TGI [45]: > 100 µM | TGI [46]: > 100 µM | TGI [47]: > 100 µM | TGI [48]: > 100 µM | TGI [49]: > 100 µM | TGI [50]: > 100 µM | TGI [51]: > 100 µM | TGI [52]: > 100 µM | TGI [53]: > 100 µM | TGI [54]: > 100 µM | TGI [55]: > 100 µM | TGI [56]: > 100 µM | TGI [57]: > 100 µM | TGI [58]: > 100 µM | TGI [59]: > 100 µM

O=c1[nH]nc(-c2ccccc2)n1-c1ccncc1
TGI [1]: > 100 µM | TGI [2]: > 100 µM | TGI [3]: > 100 µM | TGI [4]: > 100 µM | TGI [5]: > 100 µM | TGI [6]: > 100 µM | TGI [7]: > 100 µM | TGI [8]: > 100 µM | TGI [9]: > 100 µM | TGI [10]: > 100 µM | TGI [11]: > 100 µM | TGI [12]: > 100 µM | TGI [13]: > 100 µM | TGI [14]: > 100 µM | TGI [15]: > 100 µM | TGI [16]: > 100 µM | TGI [17]: > 100 µM | TGI [18]: > 100 µM | TGI [19]: > 100 µM | TGI [20]: > 100 µM | TGI [21]: > 100 µM | TGI [22]: > 100 µM | TGI [23]: > 100 µM | TGI [24]: > 100 µM | TGI [25]: > 100 µM | TGI [26]: > 100 µM | TGI [27]: > 100 µM | TGI [28]: > 100 µM | TGI [29]: > 100 µM | TGI [30]: > 100 µM | TGI [31]: > 100 µM | TGI [32]: > 100 µM | TGI [33]: > 100 µM | TGI [34]: > 100 µM | TGI [35]: > 100 µM | TGI [36]: > 100 µM | TGI [37]: > 100 µM | TGI [38]: > 100 µM | TGI [39]: > 100 µM | TGI [40]: > 100 µM | TGI [41]: > 100 µM | TGI [42]: > 100 µM | TGI [43]: > 100 µM | TGI [44]: > 100 µM | TGI [46]: > 100 µM | TGI [47]: > 100 µM | TGI [49]: > 100 µM | TGI [50]: > 100 µM | TGI [51]: > 100 µM | TGI [52]: > 100 µM | TGI [53]: > 100 µM | TGI [54]: > 100 µM | TGI [55]: > 100 µM | TGI [56]: > 100 µM | TGI [57]: > 100 µM | TGI [59]: > 100 µM
